Reference: patent US8227472B2, “Substituted pyrrolo-pyrazole derivatives as kinase inhibitors” (Nerviano Medical Sciences S.R.L., priority 2006, dated 2012)

Assays:
PLK-1 = target: T1, PLK-1 (Homo sapiens, UniProt P53350); assay: Biochemical assay for inhibitors of PLK-1 kinase activity (33P trans-phosphorylation, Dowex); details: PLK-1 3 nM, 40 microM ATP, 85 microM alpha-casein
T1 construct: His tag (N, cleaved yes); TEV cleavage site (N, cleaved yes); made in house; host or cells: High5 insect cells (baculovirus generated in Sf9)
T1 sequence (P53350 2-345): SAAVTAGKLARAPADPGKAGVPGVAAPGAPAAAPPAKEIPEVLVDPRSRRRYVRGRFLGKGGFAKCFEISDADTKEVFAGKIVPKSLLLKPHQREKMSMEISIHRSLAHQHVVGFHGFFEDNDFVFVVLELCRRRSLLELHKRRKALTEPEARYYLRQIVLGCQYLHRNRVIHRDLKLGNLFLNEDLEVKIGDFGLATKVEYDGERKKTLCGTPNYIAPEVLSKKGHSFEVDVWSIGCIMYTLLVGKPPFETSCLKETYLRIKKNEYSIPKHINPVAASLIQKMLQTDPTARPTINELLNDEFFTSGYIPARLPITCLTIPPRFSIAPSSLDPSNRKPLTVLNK
Description: Cloning, Expression and Purification of Recombinant PLK1 Kinase Domain.
PLK1 kinase domain (corresponding to residues 2-345 of the full length sequence, see Swiss-Prot accession number P53350) was PCR amplified from the full-length human PLK1 gene purchased from imaGenes as clone IRATp970A078D.
For cloning purposes, the oligonucleotides included attB sites in order to obtain an attB-flanked PCR product suitable for cloning using the Gateway® technology (Invitrogen). Furthermore, for purification purposes, forward primer included a TEV® cleavage site (Amersham Biosciences). The resulting PCR product was cloned in the pDONR221 plasmid and then transferred in the baculovirus expression vector pVL1393 (Invitrogen) Gateway®-modified. For expression and purification purposes, a His tag was added N-terminal to the PLK kinase domain. Cloning was performed according to the protocols described in the Gateway® manual.
Baculoviruses were generated by cotransfecting Sf9 insect cells with the expression vector and the viral DNA using the BaculoGold® transfection kit (Pharmingen). Viral supernatant was recovered after 5 days and subjected to 3 rounds of amplification to increase viral titer. Recombinant protein was produced by infecting High5 insect cells. After 48 hours of infection, cells were recovered, pelletted and freezed at −80° C. For purification of recombinant protein, pellet was thawed, resuspended in lysis buffer (PBS, NaCl 150 mM, CHAPS 0.1%, DTT 20 mM, glycerol 10%, protease inhibitors) and lysed by sonication. Lysate was cleared by centrifugation and loaded on a Nichel affinity column. After extensive wash, recombinant protein was cleaved and eluted by incubation with TEV® protease.
Biochemical Assay for Inhibitors of PLK-1 Kinase Activity
The inhibitory activity of putative kinase inhibitors and the potency of selected compounds were determined using a trans-phosphorylation assay.
Specific peptide or protein substrates are trans-phosphorylated by their specific serine-threonine or tyrosine kinase, in the presence of ATP traced with ^33P-γ-ATP, and in the presence of their own optimal buffer and cofactors.
At the end of the phosphorylation reaction, more than 98% cold ATP and radioactive ATP is captured by an excess of the ion exchange dowex resin; the resin then settles down to the bottom of the reaction plate by gravity.
Supernatant, containing the phosphorylated substrate, is subsequently withdrawn and transferred into a counting plate, then evaluated by β-counting.
Kinase buffer was composed of 50 mM HEPES pH 7.9 containing 10 mM MnCl2, 1 mM DTT, 3 microM NaVO3, and 0.2 mg/mL BSA, 10 mM β-glycerophosphate.
The kinase assay was run with a final enzyme concentration PLK-1 of 3 nM, in presence of 40 microM ATP, 3 nM ^33P-γ-ATP and 85 microM substrate alpha-casein, SIGMA, #C-3240.
1) 3× Enzyme mix (done in Kinase Buffer 3×), 5 microL/well
2) 3× substrate and ATP mix (done in ddH2O), together with ^33P-γ-ATP, 5 microL/well
3) 3× test compounds (diluted into ddH2O—3% DMSO)—5 microL/well
For % inhibition studies, individual dilution plates at 1 mM, 100 microM and 10 microM are prepared in 100% DMSO, then diluted at a 3× concentration (30, 3 and 0.3 microM) in ddH2O, 3% DMSO. A Multimek 96 (Beckman) is used for dilutions and compound pipetting into the test plates
For IC50 determination, compounds are received as 1 mM, 100% DMSO solutions, plated into the first column of a microtiter plate (A1 to G1), 100 microL.
A Biomek 2000 (Beckman) is used for serial 1:3 dilutions in water, 3% DMSO, from column A1 to A10 and for all the seven compounds in the plate. In a standard experiment, the highest concentration of all compounds is 30 microM, then diluted in the final test mixture down to 10 microM. […]

[1] = tested on: A2780 human ovarian cancer cells; assay: In vitro cell proliferation assay, A2780 (CellTiter-Glo); assay type: cell-based; details: 72 hours
Description: In Vitro Cell Proliferation Assay
A2780 human ovarian and MCF7 human breast cancer cells (1250 cells/well) were seeded in white 384 well-plates in complete medium (RPMI1640 or EMEM plus 10% Fetal bovine serum) and treated with compounds dissolved in 0.1% DMSO, 24 h after seeding. The cells were incubated at 37° C. and 5% CO2 and after 72 hours the plates were processed using CellTiter-Glo assay (Promega) following the manufacturer's instruction.
CellTiter-Glo is a homogenous method based on the quantification of the ATP present, an indicator of metabolitically active cells. ATP is quantified using a system based on luciferase and D-luciferin resulting into light generation. The luminescent signal is proportional to the number of cells present in culture.
Briefly 25 microL/well reagent solution are added to each wells and after 5 minutes shacking microplates are red by a luminometer. The luminescent signal is proportional to the number of cells present in culture.

Row | SMILES | IC50 (PLK-1) [nM] | IC50 [1] [nM]
1 | CCc1ccccc1NC(=O)N1Cc2c(NC(=O)c3ccc(N4CCN(C)CC4)cc3)n[nH]c2C1(C)C [Compound 178, N-(2-ethylphenyl)-6,6-dimethyl-3-{[4-(4-methylpiperazin-1-yl)benzoyl]amino}-4,6-dihydropyrrolo[3,4-c]pyrazole-5(1H)-carboxamide] | 96 | 19
2 | CC1(C)c2[nH]nc(NC(=O)c3cccc(N)c3)c2CN1C(=O)Nc1c(Cl)cccc1Cl [Compound 250, 3-[(3-aminobenzoyl)amino]-N-(2,6-dichlorophenyl)-6,6-dimethyl-4,6-dihydropyrrolo[3,4-c]pyrazole-5(1H)-carboxamide] | 30 | 119
3 | CC1(C)c2[nH]nc(NC(=O)c3ccc(N)cc3)c2CN1C(=O)Nc1c(Cl)cccc1Cl [Compound 251, 3-[(4-aminobenzoyl)amino]-N-(2,6-dichlorophenyl)-6,6-dimethyl-4,6-dihydropyrrolo[3,4-c]pyrazole-5(1H)-carboxamide] | 24 | 63

Now from value to molecule:

Row | IC50 (PLK-1) [nM] | IC50 [1] [nM] | SMILES
4 | 75 | 380 | CN1CCN(c2ccc(C(=O)Nc3n[nH]c4c3CN(C(=O)Cc3ccccc3C(F)(F)F)C4(C)C)cc2)CC1 [Compound 44, N-(6,6-dimethyl-5-{[2-(trifluoromethyl)phenyl]acetyl}-1,4,5,6-tetrahydropyrrolo[3,4-c]pyrazol-3-yl)-4-(4-methylpiperazin-1-yl)benzamide]
5 | 52 | 71 | CN1CCN(c2ccc(C(=O)Nc3n[nH]c4c3CN(C(=O)Cc3cccs3)C4(C)C)cc2)CC1 [Compound 60, N-[6,6-dimethyl-5-(2-thienylacetyl)-1,4,5,6-tetrahydropyrrolo[3,4-c]pyrazol-3-yl]-4-(4-methylpiperazin-1-yl)benzamide]
6 | 230 | 209 | Cc1ccc(C(=O)Nc2n[nH]c3c2CN(C(=O)Nc2c(Cl)cccc2Cl)C3(C)C)cc1 [Compound 64, N-(2,6-dichlorophenyl)-6,6-dimethyl-3-[(4-methylbenzoyl)amino]-4,6-dihydropyrrolo[3,4-c]pyrazole-5(1H)-carboxamide]
